From ChEMBL document CHEMBL4613325, “Design of Development Candidate eFT226, a First in Class Inhibitor of Eukaryotic Initiation Factor 4A RNA Helicase” (J Med Chem, 2020)
pIC50: −log10 of the molar value.

Legend:
MDA-MB-231 [1] = test: Antitumor activity against human MDA-MB-231 cells xenografted in athymic nude ((NCr) nu/nu mouse assessed as inhibition of tumor growth at 1 mg/kg, iv treated once weekly for 2 weeks relative to control; type: functional; conditions: MDA-MB-231, iv, 336 h
[2] = target: T1, Eukaryotic initiation factor 4A-I (Homo sapiens, UniProt P60842); test: Inhibition of eIF4A1 in human MDA-MB-231 cells assessed as inhibition of cellular-translation incubated for 4 hrs by specific tandem sequence motif repeat GGCGGC in 5'- UTR containing luciferase reporter gene assay; type: cell-based
T1 sequence (P60842 whole entry): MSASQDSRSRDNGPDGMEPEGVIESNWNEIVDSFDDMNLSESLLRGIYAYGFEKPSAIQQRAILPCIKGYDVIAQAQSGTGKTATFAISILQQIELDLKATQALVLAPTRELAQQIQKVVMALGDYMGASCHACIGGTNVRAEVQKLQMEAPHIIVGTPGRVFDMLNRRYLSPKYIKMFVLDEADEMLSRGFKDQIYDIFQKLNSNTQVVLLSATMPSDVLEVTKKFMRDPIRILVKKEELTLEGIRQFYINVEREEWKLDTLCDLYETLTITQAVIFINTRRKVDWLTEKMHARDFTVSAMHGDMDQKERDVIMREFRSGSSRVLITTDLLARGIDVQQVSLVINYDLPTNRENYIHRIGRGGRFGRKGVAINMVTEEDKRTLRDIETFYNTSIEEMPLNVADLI

[3] = Volume of distribution at steady state in iv dosed rat; type: ADME, organism-based; conditions: in vivo, read-out: Vdss
[4] = target: T1, Eukaryotic initiation factor 4A-I; test: Inhibition of eIF4A1 in human MDA-MB-231 cells assessed as inhibition of cellular-translation incubated for 4 hrs by specific tandem sequence motif repeat CAACAA in 5'- UTR containing luciferase reporter gene assay; type: cell-based
[5] = Volume of distribution at steady state in dog at 1 mg, iv administered as single dose measured after 0.083 to 24 hrs by LC-MS analysis; type: ADME, organism-based, Canis lupus familiaris; conditions: in vivo, read-out: Vdss
[6] = Volume of distribution at steady state in monkey at 1 mg, iv administered as single dose measured after 0.083 to 24 hrs by LC-MS analysis; type: ADME, organism-based, Macaca mulatta; conditions: rhesus monkey, in vivo, read-out: Vdss
[7] = Clearance in mouse at 1 mg, iv administered as single dose measured after 0.083 to 24 hrs by LC-MS analysis; type: ADME, organism-based; conditions: in vivo
[8] = AUC in iv dosed rat; type: ADME, organism-based; conditions: in vivo
[9] = Inhibition of eIF4A1 F163L mutant in human HAP1 cells assessed as reduction in cell proliferation incubated for 72 hrs by CellTiter-Glo reagent based assay; conditions: HAP1, 72 h
[10] = target: Voltage-gated inwardly rectifying potassium channel KCNH2 (Homo sapiens, UniProt Q12809); test: Inhibition of human ERG by patch-clamp assay
Chain of Voltage-gated inwardly rectifying potassium channel KCNH2 (Q12809 whole entry): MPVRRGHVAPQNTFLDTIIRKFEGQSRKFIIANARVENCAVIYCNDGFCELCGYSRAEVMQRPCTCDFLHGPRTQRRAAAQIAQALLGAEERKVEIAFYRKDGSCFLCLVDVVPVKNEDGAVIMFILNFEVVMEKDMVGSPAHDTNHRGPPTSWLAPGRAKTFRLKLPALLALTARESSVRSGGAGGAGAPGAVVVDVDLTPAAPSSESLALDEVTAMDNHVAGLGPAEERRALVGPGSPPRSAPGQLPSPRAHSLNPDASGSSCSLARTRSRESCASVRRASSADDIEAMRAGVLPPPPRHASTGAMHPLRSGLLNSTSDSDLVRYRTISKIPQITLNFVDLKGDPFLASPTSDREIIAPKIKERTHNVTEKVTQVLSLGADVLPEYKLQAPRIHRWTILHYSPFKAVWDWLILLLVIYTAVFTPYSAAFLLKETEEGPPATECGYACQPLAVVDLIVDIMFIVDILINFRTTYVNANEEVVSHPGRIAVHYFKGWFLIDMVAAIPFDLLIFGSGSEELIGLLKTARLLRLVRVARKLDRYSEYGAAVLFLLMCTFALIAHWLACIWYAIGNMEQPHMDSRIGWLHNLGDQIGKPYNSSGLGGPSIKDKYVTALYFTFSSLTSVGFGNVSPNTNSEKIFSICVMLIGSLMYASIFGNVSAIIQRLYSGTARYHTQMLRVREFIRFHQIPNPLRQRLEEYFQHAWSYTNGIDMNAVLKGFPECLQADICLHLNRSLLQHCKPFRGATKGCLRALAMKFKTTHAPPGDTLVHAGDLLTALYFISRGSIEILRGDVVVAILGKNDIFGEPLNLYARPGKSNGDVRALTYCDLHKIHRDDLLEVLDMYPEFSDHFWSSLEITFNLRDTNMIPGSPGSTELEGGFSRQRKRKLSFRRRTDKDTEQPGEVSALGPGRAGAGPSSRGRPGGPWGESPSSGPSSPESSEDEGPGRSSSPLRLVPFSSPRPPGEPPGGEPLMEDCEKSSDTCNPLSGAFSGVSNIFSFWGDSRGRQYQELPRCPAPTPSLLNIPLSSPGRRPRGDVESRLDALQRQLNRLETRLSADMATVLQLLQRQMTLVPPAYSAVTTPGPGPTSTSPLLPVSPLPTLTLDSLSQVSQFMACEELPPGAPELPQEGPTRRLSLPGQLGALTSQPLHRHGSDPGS

[11] = Clearance in dog at 1 mg, iv administered as single dose measured after 0.083 to 24 hrs by LC-MS analysis; type: ADME, organism-based, Canis lupus familiaris; conditions: in vivo
[12] = target: T1, Eukaryotic initiation factor 4A-I; test: Inhibition of eIF4A1 in human MDA-MB-231 cells assessed as inhibition of cellular-translation incubated for 4 hrs by specific tandem sequence motif repeat CCGCCG in 5'- UTR containing luciferase reporter gene assay; type: cell-based
[13] = Volume of distribution at steady state in mouse at 1 mg, iv administered as single dose measured after 0.083 to 24 hrs by LC-MS analysis; type: ADME, organism-based; conditions: in vivo, read-out: Vdss
[14] = Apparent permeability from apical to basolateral side in human Caco2 cells at 10 uM by LC/MS/MS analysis; conditions: Caco-2
[15] = Half life in Sprague-Dawley rat at 1 mg, iv administered as single dose measured after 0.083 to 24 hrs by LC-MS analysis; type: ADME, organism-based; conditions: in vivo
[16] = Volume of distribution at steady state in Sprague-Dawley rat at 1 mg, iv administered as single dose measured after 0.083 to 24 hrs by LC-MS analysis; type: ADME, organism-based; conditions: in vivo, read-out: Vdss
[17] = Half life in iv dosed rat; type: ADME, organism-based; conditions: in vivo
[18] = Protein binding in dog plasma; type: ADME, cell-free, Canis lupus familiaris; conditions: read-out: PPB (converted)
[19] = Half life in mouse at 1 mg, iv administered as single dose measured after 0.083 to 24 hrs by LC-MS analysis; type: ADME, organism-based; conditions: in vivo
[20] = target: T1, Eukaryotic initiation factor 4A-I; test: Inhibition of eIF4A1 in human MDA-MB-231 cells assessed as inhibition of cellular-translation incubated for 4 hrs by specific tandem sequence motif repeat AGAGAG in 5'- UTR containing luciferase reporter gene assay; type: cell-based
[21] = Protein binding in mouse plasma; type: ADME, cell-free; conditions: read-out: PPB (converted)
MDA-MB-231 [22] = test: Effect on GADPH protein expression in human MDA-MB-231 cells 10 to 100 nM incubated for 24 hrs by Western blot analysis; type: ADME, cell-based; conditions: mda-mb-231, 24 h
[23] = Clearance in monkey at 1 mg, iv administered as single dose measured after 0.083 to 24 hrs by LC-MS analysis; type: ADME, organism-based, Macaca mulatta; conditions: rhesus monkey, in vivo
MDA-MB-231 [24] = test: Antiproliferative activity against human MDA-MB-231 cells assessed as reduction in cell proliferation incubated for 72 hrs by CellTiter-Glo reagent based assay; type: functional; conditions: MDA-MB-231, 72 h
[25] = Half life in monkey at 1 mg, iv administered as single dose measured after 0.083 to 24 hrs by LC-MS analysis; type: ADME, organism-based, Macaca mulatta; conditions: rhesus monkey, in vivo
[26] = Clearance in iv dosed rat; type: ADME, organism-based; conditions: in vivo
[27] = Protein binding in monkey plasma; type: ADME, cell-free, Macaca mulatta; conditions: rhesus monkey, read-out: PPB (converted)
[28] = Clearance in Sprague-Dawley rat at 1 mg, iv administered as single dose measured after 0.083 to 24 hrs by LC-MS analysis; type: ADME, organism-based; conditions: in vivo
[29] = Protein binding in human plasma; type: ADME, cell-free; conditions: read-out: PPB (converted)
[30] = Toxicity in athymic nude ((NCr) nu/nu mouse xenografted with human MDA-MB-231 cells assessed as induction of body weight loss at 1 mg/kg, iv treated once weekly for 2 weeks relative to control; type: organism-based; conditions: in vivo, 336 h
[31] = Protein binding in rat plasma; type: ADME, cell-free; conditions: read-out: PPB (converted)

COc1cc2c(c(OC)n1)[C@]1(O)[C@H](O)[C@H](CN(C)C)[C@@H](c3ccccc3)[C@]1(c1ccc(C#N)cc1)O2 [ZOTATIFIN]
inhibition in vivo at 1 mg/kg (MDA-MB-231 [1]): 122% | pIC50 [2]: 7.86 | Vd [3]: 13 L/kg | pIC50 [4]: 6.66 | Vd [5]: 17.8 L/kg | Vd [6]: 12.2 L/kg | clearance [7]: 15.8 mL/min/kg | AUC [8]: 390 ng·h/mL | pIC50 [9]: 6.43 | pIC50 [10]: < 5.00 | clearance [11]: < 12.4 mL/min/kg | pIC50 [12]: 7.04 | Vd [13]: 12.1 L/kg | Papp A→B at 10 µM [14]: 2.5 ×10⁻⁶ cm/s | half-life [15]: 4.39 h | Vd [16]: 13 L/kg | half-life [17]: 4.4 h | fraction unbound [18]: 0.188 | half-life [19]: 10.9 h | pIC50 [20]: 8.82 | fraction unbound [21]: 0.252 | Activity (MDA-MB-231 [22]): Non-Toxic | clearance [23]: 11.7 mL/min/kg | pIC50 (MDA-MB-231 [24]): 7.97 | half-life [25]: 14.9 h | clearance [26]: 48 mL/min/kg | fraction unbound [27]: 0.365 | clearance [28]: 48.3 mL/min/kg | fraction unbound [29]: 0.332 | Activity [30]: Non-Toxic | fraction unbound [31]: 0.266
